US20240165097A1, “PHARMACEUTICAL COMPOSITION FOR THE TREATMENT OF ALZHEIMER'S DISEASE OR DEMENTIA” (Heptares Therapeutics Limited, priority 2021, published 2024)

Columns and labels:
[1] = test system: scopolamine-induced amnesia; assay: Passive avoidance task; type: in vivo; settings: 3, 10, 30 mg/kg po
Procedure: Studies were carried out as described previously by Foley et al., (2004) Neuropsychopharmacology. In the passive avoidance task scopolamine administration (1 mg/kg, i.p.) at 6 hours following training rendered animals amnesic of the paradigm. A dose range of 3, 10, and 30 mg/kg (po) free base, administered 90 minutes prior to the training period via oral gavage, was examined.

[2] = molecular target: T1, human muscarinic M3 receptor (Homo sapiens, UniProt P20309); assay: Alphascreen Surefire phospho-ERK1/2 assay, M3; type: cell-based; settings: CHO cells, agonist 5 min; read-out: pEC50 M3 (converted)
T1 construct: expressed in transfected cells
Procedure: (§1) ERK1/2 phosphorylation is a downstream consequence of both Gq/11 and Gi/o protein coupled receptor activation, making it highly suitable for the assessment of M1, M3 (Gq/11 coupled) and M2, M4 receptors (Gi/o coupled), rather than using different assay formats for different receptor subtypes. CHO cells stably expressing the human muscarinic M1, M2, M3 or M4 receptor were plated (25K/well) onto 96-well tissue culture plates in MEM-alpha+10% dialysed FBS. Once adhered, cells were serum-starved overnight. Agonist stimulation was performed by the addition of 5 μL agonist to the cells for 5 min (37° C.). Media was removed and 50 μL of lysis buffer added.

[3] = molecular target: T2, human muscarinic M4 receptor (Homo sapiens, UniProt P08173); assay: Alphascreen Surefire phospho-ERK1/2 assay, M4; type: cell-based; settings: CHO cells, agonist 5 min; read-out: pEC50 M4 (converted)
T2 construct: expressed in transfected cells
T2 sequence (P08173 1-479): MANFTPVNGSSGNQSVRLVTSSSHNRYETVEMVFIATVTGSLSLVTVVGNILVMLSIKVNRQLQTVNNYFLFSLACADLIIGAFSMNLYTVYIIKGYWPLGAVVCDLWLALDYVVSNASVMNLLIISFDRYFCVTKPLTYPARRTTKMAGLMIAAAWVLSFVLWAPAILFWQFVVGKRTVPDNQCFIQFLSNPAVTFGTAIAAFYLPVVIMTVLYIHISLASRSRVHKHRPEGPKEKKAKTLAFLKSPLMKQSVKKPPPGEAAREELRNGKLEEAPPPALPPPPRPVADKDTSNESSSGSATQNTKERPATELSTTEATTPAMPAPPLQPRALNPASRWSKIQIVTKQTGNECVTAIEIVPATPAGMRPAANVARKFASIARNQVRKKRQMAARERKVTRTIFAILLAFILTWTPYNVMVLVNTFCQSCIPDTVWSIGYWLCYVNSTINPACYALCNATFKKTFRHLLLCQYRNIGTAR
Procedure: as §1

[4] = molecular target: T3, human muscarinic M2 receptor (Homo sapiens, UniProt P08172); assay: Alphascreen Surefire phospho-ERK1/2 assay, M2; type: cell-based; settings: CHO cells, agonist 5 min
T3 construct: expressed in transfected cells
T3 sequence (P08172 1-466): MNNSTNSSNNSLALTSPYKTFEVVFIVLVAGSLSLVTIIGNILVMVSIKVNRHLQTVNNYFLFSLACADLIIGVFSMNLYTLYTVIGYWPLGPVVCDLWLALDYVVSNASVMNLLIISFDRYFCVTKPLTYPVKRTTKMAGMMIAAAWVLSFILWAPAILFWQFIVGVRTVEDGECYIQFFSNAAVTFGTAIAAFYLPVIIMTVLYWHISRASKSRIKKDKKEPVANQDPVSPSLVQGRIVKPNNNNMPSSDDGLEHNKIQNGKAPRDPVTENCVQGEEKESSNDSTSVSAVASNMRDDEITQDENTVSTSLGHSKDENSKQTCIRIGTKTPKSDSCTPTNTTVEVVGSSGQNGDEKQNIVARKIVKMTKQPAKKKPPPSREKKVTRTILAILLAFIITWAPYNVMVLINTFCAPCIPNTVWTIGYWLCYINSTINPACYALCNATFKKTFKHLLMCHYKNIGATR
Procedure: as §1

[5] = molecular target: T4, human muscarinic M1 receptor (Homo sapiens, UniProt P11229); assay: Alphascreen Surefire phospho-ERK1/2 assay, M1; type: cell-based; settings: for EC50: CHO cells, agonist 5 min, read-out: pEC50 M1 (converted)
T4 construct: expressed in transfected cells
T4 sequence (P11229 1-460): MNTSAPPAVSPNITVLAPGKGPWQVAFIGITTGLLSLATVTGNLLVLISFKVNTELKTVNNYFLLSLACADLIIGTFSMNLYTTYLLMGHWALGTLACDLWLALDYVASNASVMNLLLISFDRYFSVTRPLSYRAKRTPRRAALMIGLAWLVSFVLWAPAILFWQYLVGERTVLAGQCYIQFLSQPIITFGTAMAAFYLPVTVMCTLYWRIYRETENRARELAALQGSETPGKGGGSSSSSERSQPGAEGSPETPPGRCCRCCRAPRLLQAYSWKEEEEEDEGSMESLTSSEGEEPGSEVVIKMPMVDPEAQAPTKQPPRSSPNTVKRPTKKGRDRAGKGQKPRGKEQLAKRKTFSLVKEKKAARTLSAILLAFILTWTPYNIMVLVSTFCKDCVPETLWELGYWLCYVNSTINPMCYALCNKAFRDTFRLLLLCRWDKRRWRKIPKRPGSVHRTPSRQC
Procedure: as §1

[6] = test system: patients with mild-to-moderate AD; settings: human, in vivo; cited from earlier work

T1 sequence (P20309 whole entry): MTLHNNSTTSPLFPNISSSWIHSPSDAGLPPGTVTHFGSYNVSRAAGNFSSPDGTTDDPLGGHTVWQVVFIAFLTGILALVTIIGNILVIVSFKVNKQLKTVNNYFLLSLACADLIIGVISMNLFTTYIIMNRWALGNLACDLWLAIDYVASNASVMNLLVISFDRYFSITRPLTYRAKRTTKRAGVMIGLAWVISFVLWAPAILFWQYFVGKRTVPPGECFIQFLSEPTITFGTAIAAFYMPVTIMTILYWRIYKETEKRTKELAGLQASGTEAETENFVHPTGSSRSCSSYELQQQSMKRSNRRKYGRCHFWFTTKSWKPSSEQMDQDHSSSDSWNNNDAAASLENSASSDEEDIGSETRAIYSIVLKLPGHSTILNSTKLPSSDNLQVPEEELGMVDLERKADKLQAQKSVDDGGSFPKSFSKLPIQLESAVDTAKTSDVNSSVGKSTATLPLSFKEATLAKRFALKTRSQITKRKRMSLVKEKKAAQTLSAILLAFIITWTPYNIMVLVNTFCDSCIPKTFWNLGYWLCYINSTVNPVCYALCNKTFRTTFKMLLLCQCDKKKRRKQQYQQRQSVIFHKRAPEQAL

Structure (SMILES) | effect on scopolamine-induced amnesia [1] | EC50 [2] [nM] | EC50 [3] [nM] | EC50 ([4]; read-out: pEC50 M2 (converted)) [nM] | Emax ([4]; read-out: % Emax cf. ACh, M2) [%] | EC50 [5] [nM] | Emax ([5]; CHO, read-out: % Emax cf. ACh, M1, CHO cells, agonist 5 min) [%] | incidence of cholinergic adverse events [6] [%]
CCOC(=O)N1C2CCC1CC(N1CCC3(CC1)CNC(=O)C3)C2 (single isomer, unassigned) [Example 2-2 Isomer 1, ethyl 3-(3-oxo-2,8-diazaspiro[4.5]dec-8-yl)-8-azabicyclo[3.2.1]octane-8-carboxylate] | reverse scopolamine-induced amnesia of the paradigm in a dose-dependent manner | > 20000 | 200 | > 20000 | 0 | 79.4 | 99 | –
CCOC(=O)N1C2CCC1CC(N1CCC3(CC1)CNC(=O)C3)C2 (single isomer, unassigned) [Example 2-2 Isomer 2, ethyl 3-(3-oxo-2,8-diazaspiro[4.5]dec-8-yl)-8-azabicyclo[3.2.1]octane-8-carboxylate] | – | – | 25.1 | – | – | 12.6 | – | –
Cc1ccc(Cc2cc3c(=O)n([C@H]4CCCC[C@@H]4O)cnc3c3ccccc23)cn1 [MK-7622] | – | – | – | – | – | – | – | 21
